Assay: Sensory test of toothpaste with eucalyptus menthol type flavoring by trained expert panel
Type: in vivo
Settings: compared with 1-menthyl methyl ether
Description: Production of a Toothpaste Flavoring of the Eucalyptus Menthol Type, Using Menthyl Methyl Ether
The following were mixed:
In a second mixture batch, the 1,8-cineole (eucalyptol) content was replaced by 1-menthyl methyl ether. Both flavorings are incorporated at a concentration of 1.3% by weight into a standard toothpaste mix based on silicic acid. Both types of toothpaste were tested under conditions of practice by an expert panel trained in sensory testing.

Row | SMILES | sensory effects when used instead of 1-menthyl methyl ether
1 | COC(C)C1CCCC(C)(C)C1 (stereo not drawn) [1-(3,3-Dimethylcyclohexyl)ethyl methyl ether] | Comparable effects
2 | COC1CC(C)CC(C)(C)C1 (stereo not drawn) [3,3,5-trimethylcyclohexyl methyl ether] | Comparable effects
3 | C=C(C)C1CCC(C)CC1OC (stereo not drawn) [isopulegyl methyl ether, Isopulegyl methyl ether] | Comparable effects

Reference: patent US8569383B2, “Utilization of rhinologically active substances” (Symrise AG, priority 2000, dated 2013)
